In US5811582A, “Dimethyl-(3-aryl-but-3-enyl)-amine compounds as pharmaceutical active ingredients” (priority 1996, dated 1998):
Counter-ions that a name gives are not always drawn.

System: mice
Assay: Phenylquinone-induced writhing test on mice (analgesia)
Assay type: in vivo, male NMRI mice
Settings: Mus musculus, iv, read-out: ED50 (writhing test on mice)
Method: Testing for analgesia using the writhing test on mice
Testing for analgesic effectiveness was performed using the phenylquinone-induced writhing test on mice, modified according to I. C. Hendershot, J. Forsaith, J. Pharmacol. Exp. Ther. 125, 237-240 (1959). Male NMRI mice with a weight of 25-30 g were used for this purpose. For each dose of substance, groups of 10 animals received, 10 minutes after the intravenous administration of a compound according to the invention, 0.3 ml per mouse of an 0.02% aqueous solution of phenylquinone (phenylbenzoquinone: manufactured by Sigma, Deisenhofen; solution prepared with the addition of 5% ethanol and kept on a water bath at 45° C.) administered intraperitoneally. The animals were placed individually in observation cages. The number of pain-induced stretching movements (so-called writhing reactions=straightening of the body with stretching of the rear extremities) 5-20 minutes after the administration of phenylquinone was counted by means of a push-button counter.
The ED50 values of the writhing reaction were calculated by means of regression analysis (evaluation program supplied by Martens EDV Service, Eckental) from the dose-dependent decrease in the writhing reactions, by comparison with groups of animals which were tested in parallel and to which no compounds according to the invention were administered.

How did the ED50 turn out when `COc1cccc([C@@]2(O)CCCC[C@@H]2CN(C)C)c1.Cl` (racemic) [tramadol, (1RS,2RS)-2-dimethylaminomethyl-1-(3-methoxy-phenyl)-cyclohexanol hydrochloride, reference compound] was run?
Its ED50 is 3.68 mg/kg.

Same assay, conditions: Mus musculus; mice; intravenous, 10 minutes before phenylquinone (0.3 ml of 0.02% solution i.p.); writhing reactions counted 5-20 minutes after phenylquinone; read-out: ED50 (writhing test on mice)

`CN(C)C[C@H]1CCCC=C1c1cccc(O)c1` [27 (+)-enantiomer] was tested. Which ED50 did it give?
The ED50 was 1.6 mg/kg.

`CC(C)=C(c1cccc(O)c1)C(C)CN(C)C.Cl` (racemic) [Example 18, (RS)-3-[1-(2-dimethylamino-1-methyl-ethyl)-2-methyl-propenyl]-phenol hydrochloride] was tested. Which ED50 did it give?
The ED50 was 2.07 mg/kg.

With `CC/C=C(\c1cccc(O)c1)C(C)CN(C)C.Cl` (racemic) [Example 15, (Z)-(RS)-3-[1-(2-dimethylamino-1-methyl-ethyl)-but-1-enyl]-phenol hydrochloride] as the compound, how does the ED50 read?
Its ED50 is 1.33 mg/kg.

How did the ED50 turn out when `C/C=C(\c1cccc(O)c1)[C@@H](C)CN(C)C` [3 (-)-enantiomer] was run?
Its ED50 is 0.98 mg/kg.

How did the ED50 turn out when `CN(C)C[C@@H]1CCC=C1c1ccc(C(F)(F)F)cc1` [20 (-)-enantiomer] was run?
Its ED50 is 2.12 mg/kg.

`CN(C)C[C@H]1CCC=C1c1ccc(C(F)(F)F)cc1` [20 (+)-enantiomer] was tested. Which ED50 did it give?
The ED50 was 1.4 mg/kg.

For `C/C=C(\c1cccc(O)c1)C(C)CN(C)C.Cl` (racemic) [Example 2, (Z)-(RS)-3-[1-(2-dimethylamino-1-methyl-ethyl)-propenyl]-phenol hydrochloride], which ED50 is on record?
Its ED50 is 1.37 mg/kg.

Which ED50 does the source give for `C/C=C(\c1ccc2cc(O)ccc2c1)C(C)CN(C)C.Cl` (racemic) [Example 12, (Z)-(RS)-6-[1-(2-dimethylamino-1-methyl-ethyl)-propenyl]-naphth-2-ol hydrochloride] here?
Its ED50 is 0.97 mg/kg.

`Cc1cc2c(C3=CCCCC3CN(C)C)cccc2s1.Cl` (racemic) [Example 24, (RS)-dimethyl-[2-(2-methyl-benzo[b]thiophen-4-yl]-cyclohex-2-enylmethyl]-amine hydrochloride] was tested. Which ED50 did it give?
The ED50 was 1.35 mg/kg.

`C/C=C(\c1cccc(O)c1)[C@H](C)CN(C)C` [3 (+)-enantiomer] was tested. Which ED50 did it give?
The ED50 was 2.25 mg/kg.

`C[C@@H]1C=C(c2cccc(O)c2)[C@H](CN(C)C)CC1` [25 (-)-enantiomer] was tested. Which ED50 did it give?
The ED50 was 0.9 mg/kg.

How did the ED50 turn out when `CN(C)C[C@@H]1CCCC=C1c1cccc(O)c1` [26 (-)-enantiomer] was run?
The ED50 was 1.04 mg/kg.

How did the ED50 turn out when `C/C=C(\c1cccc(OC(=O)c2ccccc2OC(C)=O)c1)C(C)CN(C)C` (racemic) [Example 4, (Z)-(RS)-2-acetoxy-benzoic acid-3-[1-2-dimethylamino-1-methyl-ethyl)-propenyl]-phenyl ester hydrochloride] was run?
The ED50 was 1.64 mg/kg.
